# Results published in patent US20190060249A1 (priority 2017, published 2019).
# Assays:
# [1] = molecular target: T1, ALDH3A1 (Homo sapiens, UniProt P30838); test: ALDH enzymatic assay (spectrophotometric), recombinant ALDH3A1; format: biochemical
# T1 sequence (P30838 1-453): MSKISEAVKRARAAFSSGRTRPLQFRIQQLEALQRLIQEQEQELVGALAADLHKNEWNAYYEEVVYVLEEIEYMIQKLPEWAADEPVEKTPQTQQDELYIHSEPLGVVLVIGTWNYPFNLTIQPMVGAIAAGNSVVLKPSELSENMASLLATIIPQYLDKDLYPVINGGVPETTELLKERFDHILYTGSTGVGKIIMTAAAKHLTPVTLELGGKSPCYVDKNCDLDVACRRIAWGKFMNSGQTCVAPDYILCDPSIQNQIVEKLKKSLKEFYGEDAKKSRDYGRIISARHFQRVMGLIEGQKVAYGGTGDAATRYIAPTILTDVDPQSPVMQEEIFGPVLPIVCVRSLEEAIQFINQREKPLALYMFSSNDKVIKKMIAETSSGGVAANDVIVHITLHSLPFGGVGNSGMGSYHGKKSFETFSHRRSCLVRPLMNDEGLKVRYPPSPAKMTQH
# Text: To determine if ALDH3A1 activation is sufficient to protect salivary glands from radiation-induced dysfunction, a library of 135 traditional Chinese medicine extracts donated from Sun Ten Pharmaceutical Co., Taiwan, was screened using a spectroscopic enzyme activity assay and purified recombinant ALDH3A1. […] We then conducted high performance liquid chromatography (HPLC) fractionation of the extracts and nuclear magnetic resonance (NMR) characterization of the fractions. Based on the NMR fingerprint, we identified known constituents of similar fingerprints and purchased the commercially available compounds to test using the enzyme activity assay.
# (§1) ALDH enzymatic assay: ALDH1A1, ALDH1A2, 2, 3A1, 3A2, 4A1, 5A1, 7A1 were measured as previously described using 5 μg/ml of recombinant protein (Chen, C. H., Cruz, L. A., and Mochly-Rosen, D. (2015) Pharmacological recruitment of aldehyde dehydrogenase 3A1 (ALDH3A1) to assist ALDH2 in acetaldehyde and ethanol metabolism in vivo. Proceedings of the National Academy of Sciences of the United States of America 112, 3074-3079). […] Assays were conducted in 50 mM NaPPi buffer (pH 7.4) in the presence of 2.5 mM NAD^+ and 10 mM substrate and measured in triplicate at 25° C. Dose response curve fits and EC50's were calculated using GraphPad Prism 7 software.
# Activity measured in presence of compound concentrations from 6 nM to 400 μM.
# [2] = molecular target: T2, ALDH5A1 (Homo sapiens, UniProt P51649); test: ALDH enzymatic assay, recombinant ALDH5A1; format: biochemical; details: 5 μg/ml recombinant enzyme, 10 mM acetaldehyde, 20 μM Alda-341
# T2 sequence (P51649 48-535): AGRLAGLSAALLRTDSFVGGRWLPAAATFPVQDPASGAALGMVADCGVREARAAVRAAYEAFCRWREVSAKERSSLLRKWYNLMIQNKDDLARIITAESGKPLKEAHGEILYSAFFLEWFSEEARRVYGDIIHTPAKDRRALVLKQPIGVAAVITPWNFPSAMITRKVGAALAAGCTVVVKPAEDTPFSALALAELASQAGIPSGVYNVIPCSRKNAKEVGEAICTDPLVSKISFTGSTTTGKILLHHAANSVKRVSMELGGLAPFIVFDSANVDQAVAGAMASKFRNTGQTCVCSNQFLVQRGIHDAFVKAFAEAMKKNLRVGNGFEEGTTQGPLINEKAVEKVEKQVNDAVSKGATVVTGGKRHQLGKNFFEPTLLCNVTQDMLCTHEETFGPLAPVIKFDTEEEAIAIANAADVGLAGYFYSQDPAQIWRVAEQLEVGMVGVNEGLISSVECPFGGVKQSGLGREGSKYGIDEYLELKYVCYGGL
# Method: as §1
# [3] = molecular target: T3, ALDH7A1 (Homo sapiens, UniProt P49419); test: ALDH enzymatic assay, recombinant ALDH7A1; format: biochemical; details: 5 μg/ml recombinant enzyme, 10 mM acetaldehyde, 20 μM Alda-341
# T3 sequence (P49419 27-539): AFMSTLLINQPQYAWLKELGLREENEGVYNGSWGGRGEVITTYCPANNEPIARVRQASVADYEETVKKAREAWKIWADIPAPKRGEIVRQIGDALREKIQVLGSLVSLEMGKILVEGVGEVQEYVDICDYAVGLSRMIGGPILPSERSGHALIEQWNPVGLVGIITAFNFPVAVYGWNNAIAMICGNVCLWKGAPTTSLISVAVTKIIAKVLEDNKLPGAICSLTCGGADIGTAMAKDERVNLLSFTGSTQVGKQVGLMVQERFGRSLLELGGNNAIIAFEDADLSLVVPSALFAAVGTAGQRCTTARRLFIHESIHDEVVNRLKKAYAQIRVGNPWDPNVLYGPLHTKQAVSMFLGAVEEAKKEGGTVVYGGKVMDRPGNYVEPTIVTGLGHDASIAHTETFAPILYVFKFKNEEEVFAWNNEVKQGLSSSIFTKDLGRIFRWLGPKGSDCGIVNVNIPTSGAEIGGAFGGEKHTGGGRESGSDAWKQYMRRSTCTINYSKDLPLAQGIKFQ
# Method: as §1
# [4] = molecular target: T4, ALDH1A1 (Homo sapiens, UniProt P00352); test: ALDH fluorescence-coupled enzymatic assay, all-trans-retinal substrate, ALDH1A1; format: biochemical
# T4 sequence (P00352 1-501): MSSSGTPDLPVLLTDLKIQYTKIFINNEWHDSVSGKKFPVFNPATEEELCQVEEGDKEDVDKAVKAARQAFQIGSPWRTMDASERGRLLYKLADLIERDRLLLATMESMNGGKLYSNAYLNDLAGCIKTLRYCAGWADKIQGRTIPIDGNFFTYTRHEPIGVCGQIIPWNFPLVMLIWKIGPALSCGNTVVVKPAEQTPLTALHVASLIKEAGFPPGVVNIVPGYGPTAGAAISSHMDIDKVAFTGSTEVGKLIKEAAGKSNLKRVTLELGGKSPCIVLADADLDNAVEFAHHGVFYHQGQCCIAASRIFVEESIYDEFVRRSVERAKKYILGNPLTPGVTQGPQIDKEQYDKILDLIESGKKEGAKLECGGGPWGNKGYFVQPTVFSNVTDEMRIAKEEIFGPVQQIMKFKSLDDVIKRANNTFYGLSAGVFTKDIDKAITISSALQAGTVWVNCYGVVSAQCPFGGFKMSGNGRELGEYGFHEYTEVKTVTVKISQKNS
# Method: Assay conditions were modified from the original enzyme assay protocol above using 50 mM NaPPi buffer (pH 7.4), 2.5 mM NAD^+, 10 mM acetaldehyde or all-trans-retinal substrate with the addition of 1 U/mL diaphorase and 0.1 mM resazurin for the secondary reaction. Measurements were collected in triplicate at 25° C.
# [5] = human, 2 g/d oral Alda-341 for 2 weeks
# Text: Saliva and plasma samples were collected at baseline, and at the time of surgery, and normal salivary gland tissue was collected at the time of surgery.
# Patients were required to be between 18 to 85 years of age, have elected to undergo surgery for recent diagnosis of parotid or submandibular gland tumor, and qualified for anesthesia. […] Patients were excluded from study participation if nursing or pregnant or diagnosed with kidney disease, end stage liver disease, metastatic cancer, or any unstable medical condition. […] Blood and saliva samples were collected at baseline and on the day of surgery. Normal and tumor salivary gland tissue were collected during surgery. Drug levels in tissue, plasma, and saliva were measured by the GCMS method described herein.
# An aliquot of the heptane layer was used for analysis. […] Samples volumes of 1 μL splitless were injected with an inlet temperature of 220° C. The flow rate was constant at 1 mL/min. An Agilent DB-5MS UI column was used (30 m length, 0.250 mm inner diameter, 0.25 micron film). […] Calibration curves were linear from 4 to 8000 ng/mL.
smiles,measurement,setting,value
"C=C(C)[C@H]1CC=C(C)CC1 [Alda-341, D-limonene]",substrate specificity of increase in ALDH3A1 catalytic activity,"[1]; 10 mM acetaldehyde, propionaldehyde, benzaldehyde, cinnamaldehyde, decanal, heptaldehyde or 200 μM 4-hydroxynonenal, 100 μM compound",only increase the catalytic activity of ALDH3A1 towards small aldehydes like acetaldehyde and propionaldehyde but not aromatic or long-chain aldehydes
same,Amax,"[1]; normalized to baseline activity, GraphPad Prism curve fit",~4.6
same,EC50,"[1]; recombinant ALDH3A1, spectrophotometric enzyme activity assay, concentrations 6 nM to 400 μM",~14 µM
same,catalytic activity of ALDH5A1,[2],did not increase
same,catalytic activity of ALDH7A1,[3],did not increase
same,catalytic activity of all trans-retinal in ALDH1A1,[4],did not increase
same,average plasma drug levels after treatment,[5],144.3 ng/mL
